Assay results taken from patent US8637237B2, “Methods, compositions, and systems for the identification of species-specific or developmental stage-specific insecticides” (The University of North Carolina at Greensboro, priority 2003, dated 2014).

Molecular target: T1, EcRB1/DmUSPF2 (Drosophila melanogaster, UniProt P34021)
T1 construct: The plasmid encodes a version of EcRB1 that includes 878 amino acids, and deletes the F domain; expressed in transfected cells; host or cells: CHO (mammalian cells)
T1 sequence (P34021 1-878): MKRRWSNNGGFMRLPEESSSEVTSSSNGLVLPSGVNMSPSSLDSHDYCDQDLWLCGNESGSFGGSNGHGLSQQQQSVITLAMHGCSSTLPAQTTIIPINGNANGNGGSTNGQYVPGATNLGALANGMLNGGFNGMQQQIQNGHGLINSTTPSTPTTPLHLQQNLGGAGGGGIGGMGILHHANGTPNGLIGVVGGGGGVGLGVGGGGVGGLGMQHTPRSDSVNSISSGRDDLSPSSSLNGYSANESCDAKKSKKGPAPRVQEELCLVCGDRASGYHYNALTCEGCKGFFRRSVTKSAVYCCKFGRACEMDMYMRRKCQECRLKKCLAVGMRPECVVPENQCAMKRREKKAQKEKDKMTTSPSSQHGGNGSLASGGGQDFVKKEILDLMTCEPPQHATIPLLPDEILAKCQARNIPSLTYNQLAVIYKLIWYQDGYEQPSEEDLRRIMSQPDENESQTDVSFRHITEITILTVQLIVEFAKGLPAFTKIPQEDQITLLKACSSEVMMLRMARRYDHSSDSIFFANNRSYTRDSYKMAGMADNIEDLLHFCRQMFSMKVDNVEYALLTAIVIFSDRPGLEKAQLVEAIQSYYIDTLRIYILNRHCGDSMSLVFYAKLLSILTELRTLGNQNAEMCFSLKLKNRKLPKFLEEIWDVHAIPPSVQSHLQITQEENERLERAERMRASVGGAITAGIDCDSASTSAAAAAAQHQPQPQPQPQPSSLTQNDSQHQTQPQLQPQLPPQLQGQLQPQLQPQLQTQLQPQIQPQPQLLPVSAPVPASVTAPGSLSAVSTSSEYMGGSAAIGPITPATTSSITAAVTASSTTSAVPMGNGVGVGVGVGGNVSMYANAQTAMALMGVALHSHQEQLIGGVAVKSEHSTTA
T1 sequence (P20153 104-507 partner limits assumed): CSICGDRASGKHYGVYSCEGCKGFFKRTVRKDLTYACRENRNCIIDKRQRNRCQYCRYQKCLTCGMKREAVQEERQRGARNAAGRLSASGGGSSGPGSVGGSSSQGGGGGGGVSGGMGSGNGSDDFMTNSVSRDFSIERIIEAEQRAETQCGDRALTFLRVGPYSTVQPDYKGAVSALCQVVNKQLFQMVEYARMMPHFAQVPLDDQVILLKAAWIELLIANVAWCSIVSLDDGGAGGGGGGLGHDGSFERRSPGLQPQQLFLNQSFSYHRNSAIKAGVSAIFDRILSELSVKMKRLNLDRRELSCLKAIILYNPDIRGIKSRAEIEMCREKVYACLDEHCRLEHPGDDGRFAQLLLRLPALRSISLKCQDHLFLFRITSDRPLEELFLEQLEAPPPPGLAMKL
Assay: Drosophila EcRB1 with Drosophila USPF2, luciferase reporter in mammalian cells (FIG. 6)
Format: cell-based
Conditions: for increase of the effect of 0.1 μM murA: with 0.1 μM murA
Procedure: Unless noted otherwise, 100 ng of each EcR and USP plasmid was transfected into 2 ml of cell culture medium. As noted above, a reporter gene carrying five tandem copies of the hsp27 ecdysone response element (Riddihough and Pelham, 1986) is attached to a constitutive thymidine kinase promoter and a luciferase reporter gene (pEcREtk-LUC) and cotransfected into the cells along with vectors expressing EcR, USP, and a constitutively active β-galactosidase gene with lipofection, following manufacturer's protocols. The subsequent measure of luciferase activity reflects ecdysteroid-inducible transcription.
The Drosophila EcR isoform vectors (A, B1, and B2) used for these experiments have been described previously (Mouillet et al, 2001). These vectors lack the F-domain, which is also not essential for in vivo function (Cherbas et al, 2003). Additionally, three different VP16-USP vectors were utilized. Construction is of the VP16-USP vectors is described below. As in the earlier study, hsp27-EcRE mediated transcriptional activity was measured by detecting the luminescence produced by luciferase in transfected cell extracts. Luciferase activity was normalized by transfection with a plasmid that constitutively expresses the β-galactosidase gene such that enzymatic activity correlated with cellular mass.
After a 4 hour transfection period, the hormone treatment was applied by diluting stock solutions of muristerone A (murA; Alexis Corporation, San Diego, Calif.), JHI (Scitech), JHIII (Sigma, St Louis, Mo.), and/or 20E (Sigma, St Louis, Mo.) in DMSO. The cells were harvested 24 hours after treatment and the contents of the cells extracted for performing the luciferase and β-galactosidase assays.

Row | Compound | increase of the effect of 0.1 μM murA | stimulation of EcRB1/USPF2 complex (0.1 μM and 1.0 μM murA)
1 | COC(=O)/C=C(\C)CC/C=C(\C)CC[C@H]1OC1(C)C [JHIII, juvenile hormone III] | increased | –
2 | CC(C)=CCCC(C)=CCCC(C)=CC(=O)O [farnesoic acid] | increased | –
3 | COC(=O)/C=C(\C)CC/C=C(\C)CCC=C(C)C [methyl farnesoate] | increased | –
4 | CC(C)CC[C@@H](O)[C@](C)(O)[C@H]1CC[C@@]2(O)C3=CC(=O)[C@]4(O)C[C@@H](O)[C@@H](O)C[C@]4(C)[C@H]3[C@H](O)C[C@]12C [murA, muristerone A] | – | stimulated
